Tests used:
[1] = system: Bacterial strains identified in Example 5; experiment: Antibiotic sensitivity by diffusion disk test of strains cultured from each subject; format: cell-based
Procedure: (§1) The disclosure is based, in part, on the recognition that certain L-form bacteria are sensitive to (e.g., not resistant to treatment with) specific antibiotic agents. In some embodiments, resistance to antibiotic agents is tested by a diffusion tab (diffusion disk) test, for example as described in Reller et al. (2009) Clinical Infectious Diseases, 49(11): 1749-1755. However, the skilled artisan recognizes that additional methods of antibiotic sensitivity testing may also be used.
(§2) Bacterial strains identified in Example 5 were tested for antibiotic sensitivity by a diffusion disk test. […] Resistance to Oxacillin was also observed in the M. maritypicum samples.

M. maritypicum = experiment: Antibiotic sensitivity by diffusion disk test, M. maritypicum; format: cell-based, Microbacterium maritypicum
Procedure: as §1, §2

[2] = strains cultured from subject 1609
[3] = strains cultured from subject 1642
[4] = strains cultured from subject 1644
[5] = strains cultured from subject 3016
[6] = strains cultured from subject 1538
[7] = strains cultured from subject 1619
[8] = strains cultured from subject 1636
[9] = strains cultured from subject 1842
[10] = strains cultured from subject 3025
[11] = strains cultured from subject 3164
[12] = strains cultured from subject 1545
[13] = strains cultured from subject 1985
[14] = strains cultured from subject 1905

For `CO/N=C(\C(=O)N[C@@H]1C(=O)N2C(C(=O)O)=C(COC(N)=O)CS[C@H]12)c1ccco1` [Cefuroxime], the “Resistance?” value [1, 2] was “Cefuroxime”, the “Resistance?” value [1, 3] was “Cefuroxime” and the “Most Effective Oral Antibiotic” value [1, 4] was “Cefuroxime”. The “Resistance?” value [1, 5] was “Cefuroxime”.
In the case of `C[C@@H](O)[C@H]1C(=O)N2C(C(=O)O)=C(S[C@@H]3CN[C@H](C(=O)N(C)C)C3)[C@H](C)[C@H]12` [Meropenem], the “Most Effective IV Antibiotic” value [1, 6] is reported as “Meropenem”, the “Most Effective IV Antibiotic” value [1, 2] is reported as “Meropenem” and the “Most Effective IV Antibiotic” value [1, 7] is reported as “Meropenem”. For the same compound, the “Most Effective IV Antibiotic” value [1, 8] was “Meropenem”, the “Most Effective IV Antibiotic” value [1, 9] was “Meropenem” and the “Most Effective IV Antibiotic” value [1, 10] was “Meropenem”. The “Most Effective IV Antibiotic” value ([1]; strains cultured from subject 3104) was “Meropenem” and the “Most Effective IV Antibiotic” value [1, 11] was “Meropenem”.
With `Cc1ncc([N+](=O)[O-])n1CCO` [Metronidazole] the “Resistance?” value [1, 6] was “Metronidazole”, the “Resistance?” value [1, 12] was “Metronidazile,” and the “Resistance?” value [1, 2] was “Metronidazole,”. The “Resistance?” value [1, 7] was “Metronidazole,”, the “Resistance?” value [1, 8] was “Metronidazole,” and the “Resistance?” value [1, 3] was “Metronidazole,”. The “Resistance?” value [1, 4] was “Metronidazole,”, the “Resistance?” value ([1]; strains cultured from subject 1661) was “Metronidazole,” and the “Resistance?” value [1, 9] was “Metronidazole,”. The “Resistance?” value [1, 13] was “Metronidazole”, the “Resistance?” value [1, 5] was “Metronidazole,” and the “Resistance?” value [1, 11] was “Metronidazole”. For the same compound, the “resistance observed for M. maritypicum” value (M. maritypicum; in the majority of samples) was “resistance”.
With `Cc1onc(-c2ccccc2)c1C(=O)N[C@@H]1C(=O)N2[C@@H]1SC(C)(C)[C@@H]2C(=O)O` [Oxacillin] the “Resistance?” value [1, 12] was “Oxacillin”, the “Resistance?” value [1, 2] was “Oxaillin” and the “Resistance?” value [1, 7] was “Oxacillin”. The “Resistance?” value [1, 8] was “Oxacillin”, the “Resistance?” value [1, 3] was “Oxacillin” and the “Resistance?” value [1, 4] was “Oxacillin”. For the same compound, the “Resistance?” value [1, 9] was “Oxacillin”, the “Resistance?” value [1, 5] was “Oxacilin” and the “Resistance?” value [1, 10] was “Oxacillin”. For the same compound, the “resistance observed in the M. maritypicum samples” value (M. maritypicum; M. maritypicum samples) was “Resistance”.
In the case of Amoxiclav, the “Most Effective Oral Antibiotic” value [1, 6] is reported as “Amoxiclav”, the “Resistance?” value [1, 3] is reported as “Amoxiclav” and the “Most Effective Oral Antibiotic” value ([1]; strains cultured from subject 1888) is reported as “Amoxiclav”. For the same compound, the “Most Effective Oral Antibiotic” value [1, 14] was “Amoxiclav,”, the “Most Effective Oral Antibiotic” value [1, 5] was “Amoxiclav” and the “Most Effective Oral Antibiotic” value [1, 10] was “Amoxiclav”.
For Penicillin, the “Most Effective Oral Antibiotic” value [1, 14] was “Penicillin” and the “Resistance?” value [1, 5] was “Penicillin”.
For Rifapin, the “Most Effective Oral Antibiotic” value [1, 13] was “Rifapin”.
With Sulfa-Trimeth the “Resistance?” value [1, 12] was “Sulfa-”, the “Resistance?” value [1, 3] was “Sulfa-Trimeth,” and the “Resistance?” value [1, 5] was “Sulfa-Trimeth,”.
